Here are results for 15 compounds from patent US20090142323A1, “METHODS FOR TREATING A DISORDER BY REGULATING GPRC6A” (priority 2007, published 2009).

Assay [1] deals with T1, GPRC6A (Mus musculus, UniProt Q8K4Z6).
T1 sequence (Q8K4Z6 21-928): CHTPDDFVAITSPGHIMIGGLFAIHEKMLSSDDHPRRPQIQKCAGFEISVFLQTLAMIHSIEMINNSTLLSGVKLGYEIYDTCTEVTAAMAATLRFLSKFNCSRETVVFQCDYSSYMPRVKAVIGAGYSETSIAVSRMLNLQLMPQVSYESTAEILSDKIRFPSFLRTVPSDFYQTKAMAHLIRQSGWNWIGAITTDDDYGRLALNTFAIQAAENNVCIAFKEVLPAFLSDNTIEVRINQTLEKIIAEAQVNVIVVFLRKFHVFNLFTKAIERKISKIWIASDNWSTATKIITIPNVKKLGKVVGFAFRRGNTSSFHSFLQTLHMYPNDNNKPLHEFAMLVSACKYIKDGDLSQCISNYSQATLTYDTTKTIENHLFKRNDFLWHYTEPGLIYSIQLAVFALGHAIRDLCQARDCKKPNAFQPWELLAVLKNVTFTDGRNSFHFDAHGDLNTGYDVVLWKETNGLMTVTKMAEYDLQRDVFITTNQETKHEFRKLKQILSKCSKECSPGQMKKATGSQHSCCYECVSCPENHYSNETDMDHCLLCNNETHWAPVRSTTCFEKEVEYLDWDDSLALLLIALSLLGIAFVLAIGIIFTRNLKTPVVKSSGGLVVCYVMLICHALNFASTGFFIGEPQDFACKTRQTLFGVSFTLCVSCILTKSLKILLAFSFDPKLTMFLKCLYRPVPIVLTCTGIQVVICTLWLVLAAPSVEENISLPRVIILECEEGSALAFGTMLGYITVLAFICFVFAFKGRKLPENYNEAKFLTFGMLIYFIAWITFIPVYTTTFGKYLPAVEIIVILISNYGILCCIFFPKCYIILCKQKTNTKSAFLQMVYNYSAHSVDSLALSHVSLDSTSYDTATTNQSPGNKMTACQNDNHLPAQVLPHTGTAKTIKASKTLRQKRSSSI
The experiment in a line: phospho-ERK activation in HEK-293 cells transfected with GPRC6A (immunoblot). Format: cell-based. On the set-up: expressed in transfected cells; host or cells: HEK-293. To be noted: for inhibition of testosterone stimulated GPRC6A-mediated activation of phospho-ERK: 10 μM PD89059, 50 μM Ly294002, 2 μM U73122, 10 μM PP-1; for block of GPRC6A-mediated extracellular testosterone stimulated signaling: either phospho-ERK or SRE-luciferase as read-outs. The method, then:
(§1) Equal amounts of lysates were subjected to 10% SDS-PAGE, and phospho-ERK1/2 levels were determined by immunoblotting using antiphospho-ERK1/2 mitogen-activated protein kinase antibody (Cell Signaling Technology). […] An anti-peptide antibody was raised in a rabbit against a peptide ([…] (SEQ ID NO: 27)) corresponding to a sequence in the extracellular domain of mouse GPRC6A (in exon 1 of mouse GPRC6A gene) produced by Abgent (San Diego, Calif.). For phospho-ERK, the phospho-ERK1/2 levels were determined by immunoblotting using anti-phospho-ERK1/2 mitogen-activated protein kinase antibody (Cell Signaling Technology). Urinary β2-microglobulin was detected by rabbit polyclonal anti-β2-microglobulin antibody (Abcam Inc.). For aromatase expression analysis, the rabbit polyclonal anti-aromatase antibody (Abcam Inc.) and goat anti-rabbit IgG HRP secondary antibody (Santa Cruz Biotechnology Inc.) were used. Mouse anti-Actin antibody (Santa Cruz Biotechnology Inc.) was used for control protein loading.

The target of assay [2] is T1, GPRC6A. The experiment in a line: SRE-luciferase reporter in HEK-293 cells co-transfected with pcDNA3.mGPRC6A. Format: cell-based. On the set-up: expressed in transfected cells; host or cells: HEK-293. Conditions: for inhibition of R1881 stimulated GPRC6A-mediated activation of luciferase: SRE-luciferase. As for the experimental part:
HEK-293 cells were co-transfected with pcDNA3.mGPRC6A and SRE-luciferase reporter gene plasmid. […] Luciferase activity was assessed after 6 h of stimulation. The luciferase activity in cell extracts was measured using the luciferase assay system (Promega) following the manufacturer's protocol using a BG-luminometer (Gem Biomedical, Inc., Hamden, Conn.).

The next assay concerns osteoblastic cells. To be noted: 10 nM; cited from earlier work.
In the next assay the test system is HEK-293 cells. The experiment in a line: phospho-ERK in non-transfected HEK-293 control cells. The class given is cell-based, human. To be noted: control HEK293, no GPRC6A. The method, then: as §1
Assay [3] has as its system LNCaP prostate cancer cell line. To be noted: 10 nM, within minutes; cited from earlier work.
For assay [4], the target named is T2, calcium sensing receptor (CASR) (Rattus norvegicus, UniProt P48442).
T2 construct: expressed in transfected cells; host or cells: HEK-293
T2 sequence (P48442 20-1079): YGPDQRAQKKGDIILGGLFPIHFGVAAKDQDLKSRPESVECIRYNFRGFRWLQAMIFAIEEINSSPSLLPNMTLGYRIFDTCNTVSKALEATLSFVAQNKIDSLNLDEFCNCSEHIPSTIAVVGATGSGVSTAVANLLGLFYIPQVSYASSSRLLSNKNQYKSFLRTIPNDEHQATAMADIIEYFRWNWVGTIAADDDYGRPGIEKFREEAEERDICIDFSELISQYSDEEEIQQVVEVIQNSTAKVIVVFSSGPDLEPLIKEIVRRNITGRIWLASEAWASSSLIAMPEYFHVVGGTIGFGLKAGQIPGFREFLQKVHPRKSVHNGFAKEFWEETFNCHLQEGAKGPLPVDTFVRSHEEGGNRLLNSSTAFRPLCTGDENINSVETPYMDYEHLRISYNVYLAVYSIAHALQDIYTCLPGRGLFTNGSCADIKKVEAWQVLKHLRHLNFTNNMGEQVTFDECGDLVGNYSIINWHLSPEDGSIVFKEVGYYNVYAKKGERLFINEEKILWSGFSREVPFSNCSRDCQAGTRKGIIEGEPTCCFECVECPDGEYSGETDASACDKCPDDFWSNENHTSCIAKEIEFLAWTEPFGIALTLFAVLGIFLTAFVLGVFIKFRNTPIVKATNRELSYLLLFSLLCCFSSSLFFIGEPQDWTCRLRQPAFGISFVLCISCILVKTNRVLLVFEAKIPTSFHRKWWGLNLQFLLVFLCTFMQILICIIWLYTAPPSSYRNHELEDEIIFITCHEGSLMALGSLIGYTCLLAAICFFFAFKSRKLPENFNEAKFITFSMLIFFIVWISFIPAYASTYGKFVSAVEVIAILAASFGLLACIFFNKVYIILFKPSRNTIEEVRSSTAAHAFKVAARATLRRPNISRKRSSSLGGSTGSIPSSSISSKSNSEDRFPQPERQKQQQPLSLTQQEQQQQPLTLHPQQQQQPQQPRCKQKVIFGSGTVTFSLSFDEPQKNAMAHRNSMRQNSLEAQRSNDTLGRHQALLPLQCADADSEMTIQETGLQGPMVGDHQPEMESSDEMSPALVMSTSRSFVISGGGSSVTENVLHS
The experiment in a line: phospho-ERK in HEK-293 cells transfected with calcium sensing receptor. Format: cell-based. Conditions: HEK293 transfected with CASR. The method, then:
as §1

For assay [5], the target named is T1, GPRC6A. The experiment in a line: phospho-Src and phospho-Raf-1 western blot, GPRC6A-mediated. Format: cell-based. On the set-up: expressed in transfected cells. An excerpt:
Several physiological processes arising as a result of the rapid action of the Src-Ras-ERK signaling pathway in steroids non-genomic action also have been reported. To define the role of GPRC6A in androgen-mediated cell signaling activation, we examine the Src and Raf-1 are involved in GPRC6A-mediated androgen stimulated intercellular signaling pathway.

Assay [6] has as its target T1, GPRC6A. Details: expressed in transfected cells. To be noted: in vitro; cited from earlier work.
In assay [7] the test system is bone marrow stromal cells (BMSC). The experiment in a line: phospho-ERK in bone marrow stromal cells from wild-type and GPRC6A-/- mice. The class given is cell-based, mouse. The method, then:
The femurs and tibias from 8-week-old wild-type and GPRC6A^−/− mice were dissected, the ends of the bones were cut, and marrow was flushed out with 2 mL of ice-cold a-MEM containing 10% FBS using a needle and syringe. A suspension of bone marrow cells was obtained by repeated aspiration of the cell preparation through a 22-gauge needle, and nucleated cells were counted with a hemocytometer. Cells were seeded into 6-well plates at a density of 3×10^7 cells/mL and cultured for three days in a-MEM supplemented with 10% FBS, 100 kU/L of sodium penicillin G and 100 mg/L of streptomycin sulfate in a humidified incubator with 5% CO2 and 95% air at a temperature of 37° C. On day 3, all nonadherent cells were then removed with the first medium change and then the adherent cells (representing bone marrow-derived mesenchymal stem cells, BMSCs) were grown for additional periods of up 3 days in the same medium. After overnight quiescence, the cells were stimulated for 5 minutes by testosterone and p-estradiol at the concentrations as indicated.

Setting [8] is: HEK-293 cells transfected with GPRC6A.
Where [9] appears, read: BMSC from GPRC6A-/- mice, testosterone up to 80 nM.

Take `C[C@]12CC[C@@H]3c4ccc(O)cc4CC[C@H]3[C@@H]1CC[C@@H]2O` [17p-estradiol]: on GPRC6A [1] (setting [8]), the “GPRC6A-mediated activation of phospho-ERK” value is listed as “stimulated the GPRC6A-mediated activation of phospho-ERK” and the “concentration required to activate GPRC6A (phosphorylation of ERK)” value is 60 to 80 nM.

As for `COc1cccc(-c2cc(=O)c3ccccc3o2)c1N` [PD89059], at GPRC6A [2], the “inhibition of R1881 stimulated GPRC6A-mediated activation of luciferase” value (from here on “inhibition … of luciferase”) is “inhibited”. For the same compound, on GPRC6A [1], the “inhibition of testosterone stimulated GPRC6A-mediated activation of phospho-ERK” value (“inhibition … of phospho-ERK” for short) was “inhibited” and the “block of GPRC6A-mediated extracellular testosterone stimulated signaling” value is recorded as “blocked”.

On to `COc1ccc2c(c1)CC[C@@H]1[C@@H]2CC[C@]2(C)[C@@H](NCCCCCCN3C(=O)C=CC3=O)CC[C@@H]12` [U73122], for which the “inhibition … of phospho-ERK” value at GPRC6A [1] was “inhibited”.

`CC(C)CCC[C@@H](C)[C@H]1CC[C@H]2[C@@H]3CC=C4C[C@@H](O)CC[C@]4(C)[C@H]3CC[C@]12C` [cholesterol]: at GPRC6A [1] (setting [8]), the “GPRC6A-mediated activation of phospho-ERK” value is listed as “stimulated the GPRC6A-mediated activation of phospho-ERK”.

As to `C[C@]12CCC(=O)C[C@@H]1CC[C@@H]1[C@@H]2CC[C@]2(C)[C@@H](O)CC[C@@H]12` [DHT], the Akt activity entry in the assay on osteoblastic cells is recorded as “stimulation of Akt activity”.

Consider `C[C@]1(O)CC[C@H]2[C@@H]3CCC4=CC(=O)CCC4=C3C=C[C@@]21C` [R1881], for which the phospho-ERK response entry (in the assay with HEK-293 cells; in assay [4]) was “did not responded” each time. Further, the “GPRC6A mediated activation of luciferase” value on GPRC6A [2] (SRE-luciferase reporter, HEK-293) is recorded as “stimulated the GPRC6A mediated activation of luciferase”. The Src kinase activity entry in assay [3] was “stimulation of Src kinase activity”. In addition, the “GPRC6A-mediated activation of phospho-ERK” value on GPRC6A [1] (setting [8]) is reported as “stimulated extracellular signal-regulated kinase phosphorylation (phospho-ERK) in a dose-dependent fashion”. At GPRC6A [5], the “GPRC6A-mediated activation of phospho-Raf-1” value was “stimulated”. Also, the “GPRC6A-mediated activation of phospho-Src” value on GPRC6A [5] is on record as “stimulated GPRC6A-mediated activation of phospho-Src”.

In the case of osteocalcin, the “functional responses of GPRC6A to extracellular calcium” value on GPRC6A [6] was “enhance the functional responses of GPRC6A to extracellular calcium”.

For the compound `[Ca+2]` [extracellular calcium, calcium], the “stimulation of phospho-ERK in BMSC” value is on record as “failed to responds” in assay [7] (setting [9]) and “stimulation of ERK phosphorylation” in assay [7] (BMSC from wild-type mice).

Take `Cc1ccc(-c2nn(C(C)(C)C)c3ncnc(N)c23)cc1` [PP-1]: at GPRC6A [2], the “inhibition … of luciferase” value is reported as “inhibited”. For the same compound, on GPRC6A [1], the “inhibition … of phospho-ERK” value is reported as “inhibited” and the “block of GPRC6A-mediated extracellular testosterone stimulated signaling” value is “blocked”.

`Cn1cc(C2=C(c3cn(CCCSC(=N)N)c4ccccc34)C(=O)NC2=O)c2ccccc21` [Ro31-8220]: at GPRC6A [2], the “inhibition … of luciferase” value is on record as “inhibited”. Also, at GPRC6A [1], the “block of GPRC6A-mediated extracellular testosterone stimulated signaling” value is “blocked”.

Turning to `C=C1/C(=C\C=C2/CCC[C@]3(C)[C@@H]([C@H](C)CCCC(C)(C)O)CC[C@@H]23)C[C@@H](O)C[C@@H]1O` [1,25(OH)2Vit D3], the “GPRC6A-mediated activation of phospho-ERK” value on GPRC6A [1] (setting [8]) is “stimulated the GPRC6A-mediated activation of phospho-ERK”.

For the compound pertussis toxin, the “block of testosterone and β-estradiol stimulated activation of phospho-ERK” value on GPRC6A [1] (100 ng/ml PTx, stimuli at 50 nM) is recorded as “significantly blocked”.

Consider `CC(=O)[C@H]1CC[C@H]2[C@@H]3CCC4=CC(=O)CC[C@]4(C)[C@H]3CC[C@]12C` [progesterone], for which, at GPRC6A [1] (concentrations up to 80 nM), the “GPRC6A-mediated activation of phospho-ERK” value is “no effect”.

Regarding `C[C@]12CC[C@H](O)CC1=CC[C@@H]1[C@@H]2CC[C@]2(C)C(=O)CC[C@@H]12` [DHEA, Dehydroandrosterone], the “GPRC6A-mediated activation of phospho-ERK” value at GPRC6A [1] (setting [8]) is “stimulated the GPRC6A-mediated activation of phospho-ERK”.

As for `COc1cccc([C@@H](C)NCCCc2ccccc2Cl)c1` [NPS-R568], the “stimulation of phospho-ERK in BMSC” value is given as “failed to responds” in assay [7] (setting [9]) and “stimulation of ERK phosphorylation” in [7] (BMSC from wild-type mice).
